Data: ChEMBL document CHEMBL1201862, “PubChem BioAssay data set” (2004)
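In this assay, cells in 96-well plates receive the compound at five concentrations for 48 hours. Endpoints are linearly interpolated between the surrounding concentrations. GI50 = concentration required for 50% inhibition of growth.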 Activity calls are given as the source filed them. Cut-off read from the data, not from the text of the source: active = GI50 up to about 1.1 µM and inactive = higher.

What was measured:
Assay in all cases: NCI-60 cell line screen, 48 h
[1] = system: 786-0
[2] = system: A549
[3] = system: BT-549
[4] = system: DU-145
[5] = system: EKVX
[6] = system: HCC 2998
[7] = system: HCT-116
[8] = system: HOP-92
[9] = system: IGROV-1
[10] = system: M14
[11] = system: MCF7
[12] = system: MOLT-4
[13] = system: NCI/ADR-RES
[14] = system: SF-268
[15] = system: SF-295
[16] = system: SF-539
[17] = system: SK-MEL-28
[18] = system: SK-MEL-2
[19] = system: SNB-19
[20] = system: UACC-62

Compound | GI50 [1] | GI50 [2] | GI50 [3] | GI50 [4] | GI50 [5] | GI50 [6] | GI50 [7] | GI50 [8] | GI50 [9] | GI50 [10] | GI50 [11] | GI50 [12] | GI50 [13] | GI50 [14] | GI50 [15] | GI50 [16] | GI50 [17] | GI50 [18] | GI50 [19] | GI50 [20]
CC(=O)OC1CCC2(C)C(=CCC3C2CCC2(C)C(C(C)C(=O)O)CCC32)C1 (stereo not given) | > 100 µM (inactive) | 54.8 µM (inactive) | > 100 µM (inactive) | > 100 µM (inactive) | 56.9 µM (inactive) | 57 µM (inactive) | 75.9 µM (inactive) | > 100 µM (inactive) | > 100 µM (inactive) | > 100 µM (inactive) | 51.1 µM (inactive) | > 100 µM (inactive) | > 100 µM (inactive) | > 100 µM (inactive) | > 100 µM (inactive) | > 100 µM (inactive) | > 100 µM (inactive) | > 100 µM (inactive) | > 100 µM (inactive) | > 100 µM (inactive)
CC1(C)[C@H]2CC[C@](C)(C2)[C@]1(S)Cc1ccccn1 | 27 µM (inactive) | 42.7 µM (inactive) | 90.4 µM (inactive) | 22.4 µM (inactive) | 46.5 µM (inactive) | 18.5 µM (inactive) | 32.8 µM (inactive) | 34.5 µM (inactive) | 30.8 µM (inactive) | 84.1 µM (inactive) | 32.5 µM (inactive) | 15.3 µM (inactive) | 50.5 µM (inactive) | 39.7 µM (inactive) | 26.4 µM (inactive) | > 100 µM (inactive) | > 100 µM (inactive) | 20.8 µM (inactive) | > 100 µM (inactive) | 67.8 µM (inactive)
C[C@H]1CC(=O)[C@@]2(O)C#C/C=C\C#C[C@@H]3Nc4c(cc(O)c5c4C(=O)c4ccccc4C5=O)[C@]24O[C@]314 | 0.0128 µM (active) | 0.00543 µM (active) | 0.0194 µM (active) | 0.00189 µM (active) | 0.228 µM (active) | 0.00647 µM (active) | 0.00982 µM (active) | 0.0157 µM (active) | 0.16 µM (active) | 0.00916 µM (active) | < 0.001 µM (active) | < 0.001 µM (active) | 0.00914 µM (active) | 0.00313 µM (active) | 0.0161 µM (active) | 0.00316 µM (active) | 0.0338 µM (active) | 0.478 µM (active) | 0.0199 µM (active) | 0.00764 µM (active)
O=C1CC(NCCCNC2CC(=O)c3c(Br)sc(Br)c32)c2c(Br)sc(Br)c21 (stereo not given) | 0.675 µM (active) | 2.69 µM (inactive) | 1.73 µM (inactive) | 1.66 µM (inactive) | 2.22 µM (inactive) | 1.99 µM (inactive) | 1.36 µM (inactive) | 2.48 µM (inactive) | 1.71 µM (inactive) | 2 µM (inactive) | 0.369 µM (active) | 0.42 µM (active) | 2.16 µM (inactive) | 2.54 µM (inactive) | 3.78 µM (inactive) | 2.47 µM (inactive) | 3.15 µM (inactive) | 1.87 µM (inactive) | 2.45 µM (inactive) | 1.62 µM (inactive)
CCCCc1c(OC)cc(O)c2c1C(=O)c1[nH]c(C(=O)O)c(O)c(=O)c1C2=O | 1.62 µM (inactive) | 77.1 µM (inactive) | 4.47 µM (inactive) | 63.1 µM (inactive) | 2.34 µM (inactive) | 19.8 µM (inactive) | 3.37 µM (inactive) | 3.19 µM (inactive) | 8.43 µM (inactive) | 4.83 µM (inactive) | 21.1 µM (inactive) | 19.8 µM (inactive) | 4.18 µM (inactive) | 1.95 µM (inactive) | 22.8 µM (inactive) | 0.499 µM (active) | 4.11 µM (inactive) | 1.69 µM (inactive) | 2.25 µM (inactive) | 2.28 µM (inactive)
COc1cc2c3c(cc(Cl)nc3c1OC)C(O)(CC(=O)c1ccccc1)C(=O)N2 (stereo not given) | 8.93 µM (inactive) | 18 µM (inactive) | 16.4 µM (inactive) | 16.2 µM (inactive) | 5.14 µM (inactive) | 18.5 µM (inactive) | 4.69 µM (inactive) | 1.94 µM (inactive) | 13.2 µM (inactive) | 16.4 µM (inactive) | 1.88 µM (inactive) | 1.71 µM (inactive) | 24.8 µM (inactive) | 4.94 µM (inactive) | 17.9 µM (inactive) | 0.995 µM (active) | 16 µM (inactive) | 15.1 µM (inactive) | 17.7 µM (inactive) | 6.18 µM (inactive)
